Assay results from PubChem BioAssay (NCI).
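Tested at 5 concentrations; 48 h exposure; 96-well plates; endpoints linearly interpolated, else capped at highest concentration. Here, GI50 denotes the concentration required for 50% inhibition of growth. TGI: total growth inhibition.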

How the values were obtained:
Assay in all cases: growth of human tumour cells (NCI), 48 h
[1] = system: HCC-2998 colon
[2] = system: UACC-257 melanoma
[3] = system: NCI-H23 lung
[4] = system: SF-295 CNS
[5] = system: BT-549 breast
[6] = system: SK-MEL-28 melanoma
[7] = system: SN12C renal
[8] = system: UACC-62 melanoma
[9] = system: SW-620 colon
[10] = system: MCF7 breast
[11] = system: DU-145 prostate
[12] = system: SNB-75 CNS
[13] = system: SR leukemia
[14] = system: NCI-H460 lung
[15] = system: CCRF-CEM leukemia
[16] = system: EKVX NSCLC
[17] = system: MDA-MB-468 breast
[18] = system: IGROV1 ovarian
[19] = system: HCT-15 colon
[20] = system: HS 578T breast
[21] = system: MDA-MB-435
[22] = system: SK-OV-3 ovarian
[23] = system: HT29 colon
[24] = system: MOLT-4 leukemia
[25] = system: A498 renal
[26] = system: NCI-H522 lung
[27] = system: LOX IMVI melanoma
[28] = system: MDA-MB-231 breast
[29] = system: CAKI-1 renal
[30] = system: SK-MEL-5 melanoma
[31] = system: K-562 leukemia
[32] = system: OVCAR-3 ovarian
[33] = system: SF-268 CNS
[34] = system: SNB-19 CNS
[35] = system: SF-539 CNS
[36] = system: HOP-92 NSCLC
[37] = system: HL-60(TB) leukemia
[38] = system: SK-MEL-2 melanoma
[39] = system: NCI/ADR-RES ovarian
[40] = system: TK-10 renal
[41] = system: RXF 393 renal
[42] = system: UO-31 renal
[43] = system: OVCAR-5 ovarian
[44] = system: MALME-3M melanoma
[45] = system: ACHN renal

`CC(=O)Nc1ccc(-c2cn(-c3cccc(C(=O)Nc4cc(CN5CCOCC5)cc(C(F)(F)F)c4)c3)nn2)cn1` was tested, and the GI50 [1] was 1940 nM, the TGI [1] was 3.5 µM and the GI50 [2] was 1630 nM. The TGI [2] was 3.57 µM, the GI50 [3] was 1630 nM and the TGI [3] was 3.08 µM. It also gave a GI50 [4] of 1590 nM, a TGI [4] of 2940 nM and a GI50 [5] of 2590 nM. It also gave a TGI [5] of 4.44 µM, a GI50 [6] of 1280 nM and a TGI [6] of 2570 nM. The GI50 [7] was 1650 nM, the TGI [7] was 3.08 µM and the GI50 [8] was 1290 nM. For the same compound, the TGI [8] was 2660 nM, the GI50 [9] was 1940 nM and the TGI [9] was 3.83 µM. It also gave a GI50 [10] of 1720 nM, a TGI [10] of 3.35 µM and a GI50 [11] of 2400 nM. For the same compound, the TGI [11] was 5.11 µM, the GI50 [12] was 1780 nM and the TGI [12] was 3.28 µM. The GI50 [13] was over 100 µM, the TGI [13] was over 100 µM and the GI50 [14] was 2340 nM. It also gave a TGI [14] of 5.11 µM, a GI50 [15] of 3.34 µM and a TGI [15] of over 100 µM. For the same compound, the GI50 [16] was 2440 nM, the TGI [16] was 6.13 µM and the GI50 [17] was 1650 nM. It also gave a TGI [17] of 3.1 µM, a GI50 [18] of 2190 nM and a TGI [18] of 5.12 µM. For the same compound, the GI50 [19] was 2030 nM, the TGI [19] was 4.11 µM and the GI50 [20] was 1900 nM. For the same compound, the TGI [20] was 5.04 µM, the GI50 [21] was 1580 nM and the TGI [21] was 3.29 µM. It also gave a GI50 [22] of 2130 nM, a TGI [22] of 3.93 µM and a GI50 [23] of 2000 nM. The TGI [23] was 5.97 µM, the GI50 [24] was 3.12 µM and the TGI [24] was 16.7 µM. It also gave a GI50 [25] of 2410 nM, a TGI [25] of 4.57 µM and a GI50 [26] of 2040 nM. For the same compound, the TGI [26] was 4.82 µM, the GI50 [27] was 1420 nM and the TGI [27] was 2800 nM. It also gave a GI50 [28] of 1230 nM, a TGI [28] of 2590 nM and a GI50 [29] of 1910 nM. For the same compound, the TGI [29] was 3.48 µM, the GI50 [30] was 1570 nM and the TGI [30] was 2930 nM. For the same compound, the GI50 [31] was 178 nM, the TGI [31] was over 100 µM and the GI50 [32] was 2230 nM. For the same compound, the TGI [32] was 3.99 µM, the GI50 [33] was 2580 nM and the TGI [33] was 5.58 µM. It also gave a GI50 [34] of 2230 nM, a TGI [34] of 4.36 µM and a GI50 [35] of 1480 nM. It also gave a TGI [35] of 2820 nM, a GI50 [36] of 1950 nM and a TGI [36] of 4.62 µM. It also gave a GI50 [37] of 1330 nM, a TGI [37] of 5.47 µM and a GI50 [38] of 2130 nM. It also gave a TGI [38] of 5.44 µM, a GI50 [39] of 9.4 µM and a TGI [39] of over 100 µM. The GI50 [40] was 433 nM, the TGI [40] was 1460 nM and the GI50 [41] was 1870 nM. The TGI [41] was 3.36 µM, the GI50 [42] was 1920 nM and the TGI [42] was 3.8 µM. For the same compound, the GI50 [43] was 1880 nM, the TGI [43] was 4.99 µM and the GI50 [44] was 477 nM. For the same compound, the TGI [44] was 1820 nM, the GI50 [45] was 1770 nM and the TGI [45] was 3.26 µM.
